From paper PMC5268410, “Mode of Action of the Natural Insecticide, Decaleside Involves Sodium Pump Inhibition” (PLoS ONE, 2017) come the findings set out here.

pIC50: −log10 of the molar value.

Assay [1] has as its target T1, purified Na^+, K^+ -ATPase (porcine cerebral cortex).
T1 construct: gene ATP1A1; commercial native enzyme purified from porcine cerebral cortex (Sigma); with Sodium/potassium-transporting ATPase subunit beta-1; Sodium/potassium-transporting ATPase subunit beta-2
Nature of the assay: phosphate release from ATP. It is filed as biochemical, Sus scrofa. Conditions: 1.5 mM ATP; Na+ 0.14 M, K+ 14 mM, Mg2+ 3 mM; 37°C.

The target is the same in assay [2]. Nature of the assay: phosphate release from ATP, ouabain-inhibitable activity. The class given is biochemical, Sus scrofa. Particulars: 1.5 mM ATP; Na+ 0.14 M, K+ 14 mM, Mg2+ 3 mM; 37°C; 30 min preincubation; competitive with ATP.

The compound `C[C@@H]1O[C@@H](O[C@H]2C[C@@H](O)[C@]3(CO)[C@H]4[C@H](O)C[C@]5(C)[C@@H](C6=CC(=O)OC6)CC[C@]5(O)[C@@H]4CC[C@]3(O)C2)[C@H](O)[C@H](O)[C@H]1O` [Ouabain] gave a negative-log IC50 (pIC50) in assay [1] of 3.60. On to decaleside I, for which, in assay [2], the pIC50 was 3.98. With decaleside II, the negative logarithm of the IC50 (pIC50) in assay [2] is 4.02.

A word on the pIC50: it is the IC50 on a negative log10 scale, so that one unit is a factor of ten. A high value points to a small IC50.
